For this assay, the target named is Cav2.1 calcium channel α1 subunit (P/Q-type hCav2.1) (Homo sapiens, UniProt O00555). In words: whole-cell patch clamp of ICa in transfected HEK293-F cells. It counts as cell-based.
Sequence of Cav2.1 calcium channel α1 subunit (P/Q-type hCav2.1) (O00555 whole entry): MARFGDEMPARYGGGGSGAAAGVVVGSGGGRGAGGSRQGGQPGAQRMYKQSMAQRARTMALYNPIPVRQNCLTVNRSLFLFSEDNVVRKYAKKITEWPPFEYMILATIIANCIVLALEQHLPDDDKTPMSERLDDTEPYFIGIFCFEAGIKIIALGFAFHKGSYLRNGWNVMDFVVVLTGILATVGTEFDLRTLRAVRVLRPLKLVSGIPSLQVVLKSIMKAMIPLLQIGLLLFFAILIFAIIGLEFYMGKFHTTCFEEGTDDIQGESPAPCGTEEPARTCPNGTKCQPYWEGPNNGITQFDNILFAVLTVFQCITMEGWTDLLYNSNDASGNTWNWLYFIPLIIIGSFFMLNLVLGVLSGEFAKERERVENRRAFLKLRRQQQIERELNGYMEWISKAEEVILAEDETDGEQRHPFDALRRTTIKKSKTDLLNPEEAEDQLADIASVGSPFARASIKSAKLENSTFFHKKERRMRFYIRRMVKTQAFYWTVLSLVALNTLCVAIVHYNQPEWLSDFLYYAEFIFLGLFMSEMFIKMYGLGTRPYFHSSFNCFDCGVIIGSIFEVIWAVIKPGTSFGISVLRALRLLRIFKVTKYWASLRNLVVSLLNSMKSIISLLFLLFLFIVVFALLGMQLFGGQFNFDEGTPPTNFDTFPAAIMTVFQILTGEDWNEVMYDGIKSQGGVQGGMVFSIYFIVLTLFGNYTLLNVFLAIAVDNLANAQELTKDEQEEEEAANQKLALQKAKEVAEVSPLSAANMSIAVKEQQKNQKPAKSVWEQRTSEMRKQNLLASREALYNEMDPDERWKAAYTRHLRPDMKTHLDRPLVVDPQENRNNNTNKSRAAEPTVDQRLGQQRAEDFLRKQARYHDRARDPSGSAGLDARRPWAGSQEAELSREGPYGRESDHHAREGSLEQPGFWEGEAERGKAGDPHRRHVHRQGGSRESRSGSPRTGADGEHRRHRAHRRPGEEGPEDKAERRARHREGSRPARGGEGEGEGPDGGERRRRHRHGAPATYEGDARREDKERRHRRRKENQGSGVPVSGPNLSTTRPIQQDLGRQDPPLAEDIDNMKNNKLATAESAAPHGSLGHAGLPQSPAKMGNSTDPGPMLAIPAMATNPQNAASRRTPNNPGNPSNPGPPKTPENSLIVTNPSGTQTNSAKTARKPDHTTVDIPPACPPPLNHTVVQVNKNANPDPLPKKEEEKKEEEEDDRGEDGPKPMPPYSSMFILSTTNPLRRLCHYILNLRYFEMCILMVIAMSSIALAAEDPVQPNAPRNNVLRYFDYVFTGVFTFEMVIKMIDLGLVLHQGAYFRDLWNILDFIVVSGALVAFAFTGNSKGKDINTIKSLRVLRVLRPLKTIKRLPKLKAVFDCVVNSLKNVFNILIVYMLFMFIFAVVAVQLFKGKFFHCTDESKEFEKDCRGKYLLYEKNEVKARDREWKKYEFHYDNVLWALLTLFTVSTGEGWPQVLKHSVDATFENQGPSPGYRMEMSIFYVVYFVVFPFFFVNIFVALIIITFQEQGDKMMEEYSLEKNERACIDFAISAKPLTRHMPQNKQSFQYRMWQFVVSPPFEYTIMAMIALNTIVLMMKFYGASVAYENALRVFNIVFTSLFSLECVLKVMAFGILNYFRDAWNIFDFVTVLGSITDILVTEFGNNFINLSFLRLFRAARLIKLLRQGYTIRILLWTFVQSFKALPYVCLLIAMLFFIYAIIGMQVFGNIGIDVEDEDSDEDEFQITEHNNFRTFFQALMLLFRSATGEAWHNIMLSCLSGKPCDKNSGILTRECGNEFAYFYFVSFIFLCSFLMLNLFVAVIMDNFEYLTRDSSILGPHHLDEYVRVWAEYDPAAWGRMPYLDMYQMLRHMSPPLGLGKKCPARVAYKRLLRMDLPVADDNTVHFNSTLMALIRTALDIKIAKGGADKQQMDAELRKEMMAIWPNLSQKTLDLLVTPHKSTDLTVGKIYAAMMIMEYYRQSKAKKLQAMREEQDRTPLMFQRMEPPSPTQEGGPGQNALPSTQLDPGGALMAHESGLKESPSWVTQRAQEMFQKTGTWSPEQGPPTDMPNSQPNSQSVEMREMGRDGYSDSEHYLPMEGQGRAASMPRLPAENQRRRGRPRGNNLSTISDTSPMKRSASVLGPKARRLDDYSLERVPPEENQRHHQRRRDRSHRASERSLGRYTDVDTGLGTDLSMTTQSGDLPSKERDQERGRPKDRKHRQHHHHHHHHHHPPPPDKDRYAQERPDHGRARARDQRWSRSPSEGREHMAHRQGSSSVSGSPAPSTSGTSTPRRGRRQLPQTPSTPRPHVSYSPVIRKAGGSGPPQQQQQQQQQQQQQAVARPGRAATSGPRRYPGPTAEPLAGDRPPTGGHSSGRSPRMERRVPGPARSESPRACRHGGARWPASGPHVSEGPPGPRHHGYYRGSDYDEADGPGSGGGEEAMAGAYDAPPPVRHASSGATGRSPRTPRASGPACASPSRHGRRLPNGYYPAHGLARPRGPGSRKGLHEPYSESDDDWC

For the molecule `N.N.N.N.N.N.N.N.[Cl][Ru+3].[NH]=[Ru][Cl]` [Ru265], the IC50 is ~2.5 µM.

(Values after paper PMC11309911 (British journal of pharmacology, 2024).)
